Here are results for 1 sequence from patent US20250127844A1, “PEPTIDE HAVING HAIR LOSS PREVENTION OR HAIR GROWTH PROMOTION ACTIVITY AND USE THEREOF” (CAREGEN CO., LTD., priority 2021, published 2025).

The test system of experiment [1] is human hair follicle dermal papilla cells (HHFDPC). Briefly: MTT proliferation of dermal papilla cells. It counts as cell-based. To be noted: peptide 500 nM, 5 μM, 50 μM, 72 hours, vs untreated control, FIG. 1. The protocol: While culturing human hair follicle dermal papilla cells (HHFDPC), the absorbance was measured after treatment with the peptide of the present invention to confirm whether there was an effect of promoting the proliferation of the HHFDPC dermal papilla cells.
Specifically, HHFDPC (Sciencell, USA) was seeded at 4×10^3 cells/well in a 96-well culture plate, cultured in MSC complete medium (mesenchymal stem cell complete media, Sciencell, USA) for 24 hours, and then the medium was replaced with serum free MSC complete medium and cultured for another 24 hours. Then, the HHFDPC was treated with the peptide of SEQ ID NO: 1 prepared in the Preparation Example at concentrations of 500 nM, 5 μM, and 50 μM, respectively, and cultured at 37° C. for 72 hours. As a positive control, minoxidil was treated at a concentration of 1 μM, and as a negative control, HHFDPC without any treatment was used. Then, 10 μ ? of 5 mg/mL MTT solution was added and cultured in a 37° C. CO2 incubator for 4 hours to stain the cells. After removing the medium, the cells were treated with 100 μl of DMSO and shaken for 10 minutes, and the number of HHFDPC cells was confirmed by measuring absorbance at a wavelength of 540 nm using a spectrophotometer.

A further experiment concerns p-AKT. The experiment in a line: Western blotting of phosphorylated AKT in HHFDPC. It counts as cell-based, human. To be noted: peptide 500 nM, 5 μM, 50 μM, 24 hours, vs untreated control, FIG. 2. How it is done: (§1) First, phosphorylated forms of AKT and ERK, which act as signaling molecules related to the proliferation of HHFDPC, were confirmed through Western blotting. Specifically, HHFDPC as in [Experiment Example 1-1] above was seeded at 4×10^5 cells/well in a 6-well culture plate, cultured in MSC complete medium (mesenchymal stem cell complete media) for 24 hours, and then the medium was replaced with serum free MSC complete medium and cultured for another 24 hours. Then, the HHFDPC was treated with the peptide of SEQ ID NO: 1 prepared in the Preparation Example at concentrations of 500 nM, 5 μM, and 50 μM, respectively, and cultured at 37° C. for 24 hours. As a positive control, minoxidil was treated at a concentration of 1 μM, and as a negative control, HHFDPC without any treatment was used. Then, Western blotting was performed to detect phosphorylated AKT and phosphorylated ERK. After washing with PBS, the cells were treated with 100 μ ? of lysis buffer to destroy cells, thereby obtaining cell lysate. After electrophoresis using a 10% SDS-PAGE gel, it was transferred to a PVDF membrane and blocked using 5% skim milk at room temperature for 30 minutes. […] After washing again with 0.1% PBS-T (0.1% Tween-20 in PBS) three times for 15 minutes each, p-AKT and p-ERK were detected by treatment with ECL solution (GE Healthcare, USA).
Background: Immunoblotting shows a protein as a band on a membrane.

The subject of the next experiment is p-ERK. The experiment in a line: Western blotting of phosphorylated ERK in HHFDPC. It counts as cell-based, human. To be noted: peptide 500 nM, 5 μM, 50 μM, 24 hours, vs untreated control, FIG. 2. How it is done:
as §1

For another experiment, the system named is β-catenin. The experiment in a line: Western blotting of β-catenin moved to the nucleus in HHFDPC. To be noted: HHFDPC nuclear protein, peptide 500 nM, 5 μM, 50 μM, 24 hours, vs untreated control, FIG. 3. It counts as cell-based, human. How it is done: In addition, in addition to p-AKT and p-ERK, in order to confirm the activation of β-catenin, which is known to affect cell proliferation and differentiation, whether β-catenin moved into the nucleus was confirmed through Western blotting. Specifically, the HHFDPC as in [Experiment Example 1-1] was seeded in a 6-well culture plate at an amount of 4×10^5 cells/well, cultured in MSC complete medium (mesenchymal stem cell complete media) for 24 hours. Next, the medium was replaced with serum free MSC complete medium and cultured again for 24 hours. Then, the HHFDPC was treated with the peptide of SEQ ID NO: 1 prepared in the Preparation Example at concentrations of 500 nM, 5 μM, and 50 μM, respectively, and cultured at 37° C. for 24 hours. As a positive control, minoxidil was treated at a concentration of 1 μM, and as a negative control, HHFDPC without any treatment was used. After washing with PBS, proteins in the nucleus were isolated using a nuclear protein extraction kit (Thermo scientific, USA). After electrophoresis using a 10% SDS-PAGE gel, it was transferred to a PVDF membrane and blocked using 5% skim milk at room temperature for 30 minutes. […] After washing again with 0.1% PBS-T (0.1% Tween-20 in PBS) three times for 15 minutes each, β-catenin was detected by treatment with ECL solution (GE Healthcare, USA).

A further experiment concerns LEF-1. Briefly: RT-PCR of LEF-1 expression in HHFDPC. It counts as cell-based, human. To be noted: peptide 500 nM, 5 μM, 50 μM, 24 hours, vs untreated control, FIG. 4. How it is done:
(§2) Furthermore, in order to determine whether the β-catenin moves to the nucleus and is activated to affect proliferation and differentiation, whether the expression of LEF-1, c-Myc and cyclin D1 (cyclin D1), which act as downstream factors, increases with β-catenin activation was confirmed through RT-PCR. Specifically, in the same manner as the previous Western blotting experiment, HHFDPC cells were cultured, treated with the peptides of the Preparation Example of the present invention at concentrations of 500 nM, 5 μM, and 50 μM, respectively, and cultured at 37° C. for 24 hours. After washing the cells with PBS, RNA was isolated by treating them with 300 μ ? of easy blue (intron, Korea). Then, cDNA was synthesized using a cDNA synthesis kit (enzynomics, Korea) by quantifying it with nano drop, and PCR was performed using primers for LEF-1, c-Myc and cyclin D1 (base sequences of the primer are listed in Table 2 below) and PCR premix (enzynomics, Korea). Electrophoresis was performed on a 1.5% agarose gel, and then the mRNA of LEF-1, c-Myc, c-Myc and cyclin D1 was detected using a band analysis system (Bio-Rad gel image system).

The test system of another experiment is c-Myc. Briefly: RT-PCR of c-Myc expression in HHFDPC. The experiment is classed as cell-based, human. To be noted: peptide 500 nM, 5 μM, 50 μM, 24 hours, vs untreated control, FIG. 4. The protocol: as §2
A further experiment deals with cyclin D1. The experiment in a line: RT-PCR of cyclin D1 expression in HHFDPC. The experiment is classed as cell-based, human. To be noted: peptide 500 nM, 5 μM, 50 μM, 24 hours, vs untreated control, FIG. 4. How it is done: as §2
The test system of the next experiment is DKK-1 protein. Briefly: Western blotting of DKK-1 protein in DHT-treated HHFDPC. It counts as cell-based, human. To be noted: HHFDPC with DHT 100 nM, peptide 500 nM, 5 μM, 50 μM, 24 hours, vs DHT-only negative control, FIG. 5. How it is done: DKK-1 protein (dickkopf-related protein 1) is a hair loss-related protein known to be highly expressed in individuals with hair loss, especially male pattern hair loss, and its expression is known to be promoted by hormones such as DHT (Dihydrotestosterone). Accordingly, the expression of DKK-1 protein was induced by treating HHFDPC cells with DHT together with the peptide according to the Preparation Example of the present invention, and then the expression level of DKK-1 was measured through Western blotting to determine whether there was an effect of suppressing the expression of DKK-1 protein.
Specifically, HHFDPC as in [Experiment Example 1-1] was seeded in a 6-well culture plate at 4×10^5 cells/well and then cultured in MSC complete medium (mesenchymal stem cell complete media) for 24 hours. Next, the medium was replaced with serum free MSC complete medium and cultured again for 24 hours. In addition, the HHFDPC was treated with the peptide of SEQ ID NO: 1 prepared in the Preparation Example at concentrations of 500 nM, 5 μM, and 50 μM, respectively, and at this time, DHT, an expression inducer of DKK-1 protein, was simultaneously treated at a concentration of 100 nM and then cultured at 37° C. for 24 hours. […] After washing again with 0.1% PBS-T (0.1% Tween-20 in PBS) three times for 15 minutes each, DKK-1 protein was detected by treatment with ECL solution (GE Healthcare, USA).

Another experiment has as its system Ha3-II. The experiment in a line: RT-PCR of Ha3-II expression in HHORSC. To be noted: peptide 500 nM, 5 μM, 50 μM, 72 hours, vs untreated control, FIG. 6. It counts as cell-based, human. The protocol: (§3) Specifically, HHORSC (human hair outer root sheath cell, Sciencell, USA) was seeded in a 6-well culture plate at 4×10^5 cells/well and then cultured in MSC complete medium (mesenchymal stem cell complete media) for 24 hours. Next, the medium was replaced with serum free MSC complete medium and cultured again for 24 hours. Then, the HHORSC was treated with the peptide of SEQ ID NO: 1 prepared in the Preparation Example at concentrations of 500 nM, 5 μM, and 50 μM, respectively, and cultured at 37° C. for 72 hours. As a positive control, EGF was treated at a concentration of 50 nM, and as a negative control, HHORSC without any treatment was used. After washing with PBS, RNA was isolated by treating with 300 μ ? of easy blue (intron, Korea). Then, cDNA was synthesized using a cDNA synthesis kit (enzynomics, Korea) by quantification using nano drop, and PCR was performed using primers for Ha3-II, Keratin 14, and Keratin 19 (base sequences of primer are listed in Table 3 below) and PCR premix (enzynomics, Korea). Electrophoresis was performed on a 1.5% agarose gel, and the mRNAs of Ha3-II, Keratin 14, and Keratin 19 were detected using a band analysis system (Bio-Rad gel image system).

A further experiment has as its system Keratin 14. The experiment in a line: RT-PCR of Keratin 14 expression in HHORSC. It counts as cell-based, human. To be noted: peptide 500 nM, 5 μM, 50 μM, 72 hours, vs untreated control, FIG. 6. How it is done:
as §3

The next experiment relates to Keratin 19. Briefly: RT-PCR of Keratin 19 expression in HHORSC. It counts as cell-based, human. To be noted: peptide 500 nM, 5 μM, 50 μM, 72 hours, vs untreated control, FIG. 6. The protocol:
as §3

A further experiment has as its system MSX2. The experiment in a line: RT-PCR of MSX2 expression in HHGMC. It counts as cell-based, human. To be noted: peptide 500 nM, 5 μM, 50 μM, 72 hours, vs untreated control, FIG. 7. How it is done:
Specifically, HHGMC (human hair germinal matrix cell, Sciencell, USA) was seeded in a 6-well culture plate at 4×10^5 cells/well and then cultured in MSC complete medium (mesenchymal stem cell complete media) for 24 hours. Next, the medium was replaced with serum free MSC complete medium and cultured again for 24 hours. Then, the HHGMC was treated with the peptide of SEQ ID NO: 1 prepared in the Preparation Example at concentrations of 500 nM, 5 μM, and 50 μM, respectively, and cultured at 37° C. for 72 hours. As a positive control, EGF was treated at a concentration of 50 nM, and as a negative control, HHGMC without any treatment was used. After washing with PBS, RNA was isolated by treating with 300 μ ? of easy blue (intron, Korea). Next, cDNA was synthesized using a cDNA synthesis kit (enzynomics, Korea) by quantification using nano drop, and PCR was performed using primers for MSX2 (base sequences of primer are listed in Table 4 below) and PCR premix (enzynomics, Korea). Electrophoresis was performed on a 1.5% agarose gel, and MSX2 mRNA was detected using a band analysis system (Bio-Rad gel image system).

Take “QHNQIRYFEE [peptide of the present invention]”: in experiment [1], the “proliferation of HHFDPC (absorbance at 540 nm, MTT)” value is given as “proliferation of HHFDPC was promoted depending on the concentration of the treated peptide”. For the same sequence, the “phosphorylated AKT (p-AKT)” value with p-AKT is recorded as “phosphorylation was found to be increased”. The “phosphorylated ERK (p-ERK)” value with p-ERK was “phosphorylation was found to be increased”. In the experiment with β-catenin, the “β-catenin moved to the nucleus” value is “migration due to activation of β-catenin increased”. Moreover, the “LEF-1 mRNA” value in the experiment on LEF-1 is “the amount of mRNA increased further”. In addition, in the experiment on c-Myc, the “c-Myc mRNA” value is “the amount of mRNA increased further”. Besides, in the experiment with cyclin D1, the “cyclin D1 mRNA” value is reported as “the amount of mRNA increased further”. The “amount of DKK-1 protein” value in the experiment with DKK-1 protein is given as “the amount of DKK-1 protein was found to be reduced”. In addition, in the experiment with Ha3-II, the “Ha3-II mRNA” value is given as “the amount of mRNA increased further”. Moreover, the “Keratin 14 mRNA” value in the experiment with Keratin 14 is “the amount of mRNA increased further”. Moreover, the “Keratin 19 mRNA” value with Keratin 19 is reported as “the amount of mRNA increased further”. Also, the “MSX2 mRNA” value in the experiment with MSX2 is listed as “the amount of mRNA increased further”.
